In patent US10450306B2, “Isoxazole analogs as FXR agonists and methods of use thereof” (Enanta Pharmaceuticals, Inc., priority 2016, dated 2019):

Molecular target: T1, human FXR (NR1H4) (Homo sapiens, UniProt Q96RI1)
T1 construct: host or cells: CHO (Chinese hamster ovary) reporter cells
T1 sequence (Q96RI1 1-486): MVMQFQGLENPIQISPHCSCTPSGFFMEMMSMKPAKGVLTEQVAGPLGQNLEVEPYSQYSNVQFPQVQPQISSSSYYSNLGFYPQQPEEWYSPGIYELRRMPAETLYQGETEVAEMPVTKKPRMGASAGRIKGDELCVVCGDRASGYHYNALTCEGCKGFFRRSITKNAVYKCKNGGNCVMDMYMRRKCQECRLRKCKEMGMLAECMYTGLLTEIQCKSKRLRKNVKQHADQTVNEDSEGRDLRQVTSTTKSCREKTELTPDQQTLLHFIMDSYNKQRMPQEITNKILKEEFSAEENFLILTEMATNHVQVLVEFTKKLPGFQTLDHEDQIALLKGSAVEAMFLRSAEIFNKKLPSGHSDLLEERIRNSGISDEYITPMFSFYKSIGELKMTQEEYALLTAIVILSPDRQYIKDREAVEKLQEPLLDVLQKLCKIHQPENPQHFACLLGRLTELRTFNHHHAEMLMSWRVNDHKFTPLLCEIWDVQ
Experiment: Human FXR (NR1H4) Assay: Gal4 promoter driven luciferase reporter transactivation in CHO cells (Indigo Bioscience kit IB00601); for Efficacy (%): efficacy normalized to CDCA set as 100%
Type: cell-based
Conditions: for Emax: CHO, read-out: Efficacy (%); for EC50: Human FXR (NR1H4) reporter assay, potency ranges
Method in brief: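 CHO reporter cells expressing human FXR with an FXR-responsive promoter-driven luciferase were treated with compound dose series at 0.2% DMSO for 22 h at 37 °C. Luciferase activity was then read by luminescence as the measure of FXR activation.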

| SMILES | Emax [%] | EC50 [nM] |
| --- | --- | --- |
| O=C(NS(=O)(=O)C1CC1)c1ccc(N2C3CCC2CC(NCc2c(-c4ccccc4OC(F)(F)F)noc2C2CC2)C3)nc1 (centres unmarked) [Example 900-13] | 59.5 | 1 to 100 |
| CC1(S(=O)(=O)NC(=O)c2ccc(N3C4CCC3CC(NCc3c(-c5ccccc5OC(F)(F)F)noc3C3CC3)C4)nc2)CC1 (centres unmarked) [Example 900-14] | 46.5 | 100 to 1000 |
| O=C(NS(=O)(=O)C1CC1)c1ccc2nc(N3C4CCC3CC(NCc3c(-c5ccccc5OC(F)(F)F)noc3C3CC3)C4)ccc2c1 (centres unmarked) [Example 900-15] | 82.5 | 1 to 100 |
| CC1(S(=O)(=O)NC(=O)c2ccc3nc(N4C5CCC4CC(NCc4c(C6CCC7(CC6)CC7)noc4C4CC4)C5)sc3c2)CC1 (centres unmarked) [Example 1202] | 85.5 | 1 to 100 |
| CC(C)Oc1cc(C(=O)O)cc2sc(N3C4CCC3CC(NCc3c(-c5ccccc5C(F)(F)F)noc3C3CC3)C4)nc12 (centres unmarked) [Example 1401] | 125 | 100 to 1000 |
| CC(C)Oc1cc(C(=O)NS(=O)(=O)C2(C)CC2)cc2sc(N3C4CCC3CC(NCc3c(-c5ccccc5C(F)(F)F)noc3C3CC3)C4)nc12 (centres unmarked) [Example 1402] | 136 | 1 to 100 |
| COC(=O)c1cc(OC(C)C)c2nc(N3C4CCC3CC(NCc3c(-c5ccccc5C(F)(F)F)noc3C3CC3)C4)sc2c1 (centres unmarked) [Example 1403] | 119 | 1 to 100 |
| COC(=O)c1cc(C)c2nc(N3C4CCC3CC(NCc3c(-c5ccccc5C(F)(F)F)noc3C3CC3)C4)sc2c1 (centres unmarked) [Example 1404] | 46 | 100 to 1000 |
| Cc1cc(C(=O)O)cc2sc(N3C4CCC3CC(NCc3c(-c5ccccc5C(F)(F)F)noc3C3CC3)C4)nc12 (centres unmarked) [Example 1405] | 125 | 1 to 100 |
| Cc1cc(C(=O)NS(=O)(=O)C2(C)CC2)cc2sc(N3C4CCC3CC(NCc3c(-c5ccccc5C(F)(F)F)noc3C3CC3)C4)nc12 (centres unmarked) [Example 1406] | 133 | < 1 |
| COC(=O)c1cc(F)c2nc(N3C4CCC3CC(NCc3c(-c5ccccc5C(F)(F)F)noc3C3CC3)C4)sc2c1 (centres unmarked) [Example 1407] | 92.5 | 1 to 100 |
| O=C(O)c1cc(F)c2nc(N3C4CCC3CC(NCc3c(-c5ccccc5C(F)(F)F)noc3C3CC3)C4)sc2c1 (centres unmarked) [Example 1408] | 103 | 1 to 100 |
| COC(=O)c1cc(C2CC2)c2nc(N3C4CCC3CC(NCc3c(-c5ccccc5C(F)(F)F)noc3C3CC3)C4)sc2c1 (centres unmarked) [Example 1409] | 52 | 1 to 100 |
| O=C(O)c1cc(C2CC2)c2nc(N3C4CCC3CC(NCc3c(-c5ccccc5C(F)(F)F)noc3C3CC3)C4)sc2c1 (centres unmarked) [Example 1410] | 74.5 | < 1 |
| O=C(O)c1ccc2nc(N3C4CCC3CC(NCc3c(-c5c(F)cccc5F)noc3C3CC3)C4)sc2c1 (centres unmarked) [Example 1411] | 94.7 | 1 to 100 |
| CCOC(=O)c1ccc2nc(N3C4CCC3CC(NCc3c(-c5ccccc5C(F)(F)F)noc3C3CC3)C4)sc2c1 (centres unmarked) [Example 1412] | 75 | 100 to 1000 |

| SMILES | Emax [%] | EC50 [nM] |
| --- | --- | --- |
| O=C(O)c1ccc2nc(N3C4CCC3CC(NCc3c(-c5ccccc5C(F)(F)F)noc3C3CC3)C4)sc2c1 (centres unmarked) [Example 1413] | 90.7 | 1 to 100 |
| O=C(NS(=O)(=O)C1CC1)c1cc(C2CC2)c2nc(N3C4CCC3CC(NCc3c(-c5ccccc5C(F)(F)F)noc3C3CC3)C4)sc2c1 (centres unmarked) [Example 1414] | 89.5 | < 1 |
| CC(C)Oc1cc(C(=O)NS(=O)(=O)C2CC2)cc2sc(N3C4CCC3CC(NCc3c(-c5ccccc5C(F)(F)F)noc3C3CC3)C4)nc12 (centres unmarked) [Example 1415] | 106 | 1 to 100 |
| O=C(NS(=O)(=O)C1CC1)c1ccc2nc(N3C4CCC3CC(NCc3c(-c5ccccc5C(F)(F)F)noc3C3CC3)C4)sc2c1 (centres unmarked) [Example 1416] | 87.5 | 1 to 100 |
| O=C(NS(=O)(=O)C1CC1)c1ccc2nc(N3C4CCC3CC(NCc3c(-c5c(F)cccc5F)noc3C3CC3)C4)sc2c1 (centres unmarked) [Example 1417] | 69 | 1 to 100 |
| O=C(O)c1ccc2nc(N3C4CCC3CC(NCc3c(-c5ccccc5C(F)(F)F)noc3C3CC3)C4)oc2c1 (centres unmarked) [Example 1418] | 102 | 1 to 100 |
| O=C(O)c1cc(C2CC2)c2nc(N3C4CCC3CC(NCc3c(-c5c(F)cccc5F)noc3C3CC3)C4)sc2c1 (centres unmarked) [Example 1419] | 107 | 1 to 100 |
| CC1(S(=O)(=O)NC(=O)c2ccc3nc(N4C5CCC4CC(NCc4c(-c6ccccc6C(F)(F)F)noc4C4CC4)C5)sc3c2)CC1 (centres unmarked) [Example 1420] | 91 | 1 to 100 |
| CC1(S(=O)(=O)NC(=O)c2ccc3nc(N4C5CCC4CC(NCc4c(-c6c(F)cccc6F)noc4C4CC4)C5)sc3c2)CC1 (centres unmarked) [Example 1421] | 101 | 1 to 100 |
| CC1(S(=O)(=O)NC(=O)c2ccc3nc(N4C5CCC4CC(NCc4c(-c6ccccc6C6CC6)noc4C4CC4)C5)sc3c2)CC1 (centres unmarked) [Example 1422] | 94 | 1 to 100 |
| COC(=O)c1cc(OC(C)C)c2nc(N3C4CCC3CC(NCc3c(-c5c(F)cccc5F)noc3C3CC3)C4)sc2c1 (centres unmarked) [Example 1423] | 78 | > 1000 |
| O=C(NS(=O)(=O)C1CC1)c1ccc2nc(N3C4CCC3CC(NCc3c(-c5ccccc5C(F)(F)F)noc3C3CC3)C4)oc2c1 (centres unmarked) [Example 1424] | 148 | 1 to 100 |
| CC1(S(=O)(=O)NC(=O)c2ccc3nc(N4C5CCC4CC(NCc4c(-c6ccccc6C(F)(F)F)noc4C4CC4)C5)oc3c2)CC1 (centres unmarked) [Example 1425] | 74 | 100 to 1000 |
| CC(C)Oc1cc(C(=O)O)cc2sc(N3C4CCC3CC(NCc3c(-c5c(F)cccc5F)noc3C3CC3)C4)nc12 (centres unmarked) [Example 1426] | 73.2 | 100 to 1000 |
| CC(C)Oc1cc(C(=O)NS(=O)(=O)C2(C)CC2)cc2sc(N3C4CCC3CC(NCc3c(-c5c(F)cccc5F)noc3C3CC3)C4)nc12 (centres unmarked) [Example 1428] | 86 | 1 to 100 |
